{"source": "paper PMC6511944", "about": "(Journal of Medicinal Chemistry, 2019)", "key": {"[1]": {"tested_on": "lipid peroxidation in RAW 264.7 cells", "test": "lipid peroxidation by BODIPY 581/591 C11 staining and FACS in RAW 264.7 cells", "assay_type": "cell-based, murine", "settings": "5 μM, LPS/IFNγ 10 ng/mL of each, 24 h"}, "RAW 264.7 macrophages": {"tested_on": "RAW 264.7 macrophages", "test": "protection of RAW 264.7 macrophages from LPS-induced cytotoxicity", "settings": "LPS 100 μg/mL, MTS assay"}, "NF-κB": {"tested_on": "NF-κB", "test": "RAW-Blue NF-κB reporter gene assay", "assay_type": "cell-based, murine", "settings": "RAW-Blue macrophages, 0.2, 1 and 5 μM, LPS/IFNγ 10 ng/mL of each"}, "NO production": {"tested_on": "NO production", "test": "nitric oxide", "assay_type": "cell-based, murine", "settings": "RAW 264.7 cells, 0.2, 1 and 5 μM, LPS/IFNγ 10 ng/mL of each"}, "iNOS": {"tested_on": "iNOS", "assay_type": "cell-based, murine", "settings": "5 μM, RAW 264.7 macrophages activated by LPS and IFNγ (10 ng/mL of each)"}, "15-LOX-1": {"target": "T1, 15-LOX-1 (Homo sapiens, UniProt P16050)", "T1 sequence (P16050 1-662)": "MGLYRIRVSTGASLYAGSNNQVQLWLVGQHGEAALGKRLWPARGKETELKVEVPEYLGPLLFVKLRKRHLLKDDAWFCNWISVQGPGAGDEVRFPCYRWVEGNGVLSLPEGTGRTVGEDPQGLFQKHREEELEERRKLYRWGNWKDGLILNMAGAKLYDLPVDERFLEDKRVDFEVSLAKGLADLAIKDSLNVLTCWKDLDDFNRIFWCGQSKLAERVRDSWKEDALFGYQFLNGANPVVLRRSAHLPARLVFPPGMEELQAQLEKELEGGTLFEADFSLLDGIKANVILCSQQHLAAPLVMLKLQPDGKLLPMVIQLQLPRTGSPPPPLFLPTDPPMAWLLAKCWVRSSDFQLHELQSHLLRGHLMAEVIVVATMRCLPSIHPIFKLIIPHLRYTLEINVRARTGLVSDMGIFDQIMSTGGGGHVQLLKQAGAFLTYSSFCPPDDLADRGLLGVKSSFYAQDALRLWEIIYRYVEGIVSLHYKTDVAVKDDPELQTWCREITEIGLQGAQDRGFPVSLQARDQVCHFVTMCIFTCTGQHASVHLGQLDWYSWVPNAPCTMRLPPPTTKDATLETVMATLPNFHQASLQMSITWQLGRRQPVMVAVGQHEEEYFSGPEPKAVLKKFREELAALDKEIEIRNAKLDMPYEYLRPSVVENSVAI", "assay_type": "biochemical"}}, "note": "“Also recorded” adds a separate entry of the source."}
{"smiles": "c1ccc2c(c1)SCc1c-2[nH]c2ccccc12", "note": "[PD-146176, reference compound]", "values": [{"measurement": "effect on the boost of lipid peroxides", "setting": "[1]", "result": "significantly attenuated"}]}
{"smiles": "CC(c1cc2ccccc2s1)N(O)C(N)=O", "note": "(stereo not drawn) [Zileuton]", "values": [{"measurement": "effect on viability of LPS-treated RAW 264.7 macrophages, in words", "setting": "RAW 264.7 macrophages", "result": "comparably improved the viability"}]}
{"smiles": "CCOC(=O)c1[nH]c2cc(Cl)ccc2c1/C=C/C(=O)NCc1ccccc1OC", "note": "[Compound 9c, Ethyl (E)-6-Chloro-3-(3-((2-methoxybenzyl)amino)-3-oxoprop-1-en-1-yl)-1H-indole-2-carboxylate]", "values": [{"measurement": "inhibition of NF-κB transcriptional activation", "setting": "NF-κB", "result": "significant but not complete inhibition"}, {"measurement": "effect on the boost of lipid peroxides", "setting": "[1]; listed as 9c (i472)", "result": "significantly attenuated; also recorded: clear reduction back to baseline levels"}, {"measurement": "effect on viability of LPS-treated RAW 264.7 macrophages, in words", "setting": "RAW 264.7 macrophages", "result": "stronger, dose-dependent effects"}, {"measurement": "inhibition of NO production (total nitrate/nitrite)", "setting": "NO production", "result": "dose-dependent inhibition"}, {"measurement": "downregulation of iNOS gene expression", "setting": "iNOS", "result": "approximately 50%"}]}
{"smiles": "CCCNC(=O)c1[nH]c2cc(Cl)ccc2c1CN(C)C", "note": "[Compound 13, 6-Chloro-3-((dimethylamino)methyl)-N-propyl-1H-indole-2-carboxamide]", "values": [{"measurement": "potency against 15-LOX-1, in words", "setting": "15-LOX-1", "result": "complete loss in potency"}]}
{"smiles": "CCOC(=O)c1[nH]c2cc(Cl)ccc2c1C(=O)C[C@@H](C)CCCC(C)C", "note": "[Eleftheriadis-14d]", "values": [{"measurement": "effect on viability of LPS-treated RAW 264.7 macrophages, in words", "setting": "RAW 264.7 macrophages", "result": "comparably improved the viability"}]}
